Measurements published in ChEMBL document CHEMBL1268991, “New stilbenoid with inhibitory activity on viral neuraminidases from Erythrina addisoniae” (Bioorg Med Chem Lett, 2010).

Experiments:
Neuraminidase [1] = molecular target: T1, Neuraminidase (Influenza A virus, UniProt B4URF0); assay: Inhibition of influenza A virus H1N1 Neuraminidase using 4-methylumbelliferyl-alpha-D-N-acetylneuraminic acid sodium salt hydrate substrate
Neuraminidase [2] = molecular target: T1, Neuraminidase; assay: Inhibition of influenza A virus H9N2 Neuraminidase using 4-methylumbelliferyl-alpha-D-N-acetylneuraminic acid sodium salt hydrate substrate
Neuraminidase [3] = molecular target: T1, Neuraminidase; assay: Non-competitive inhibition of influenza A virus H1N1 Neuraminidase using 4-methylumbelliferyl-alpha-D-N-acetylneuraminic acid sodium salt hydrate substrate by Lineweaver burk plot

Row | SMILES | IC50 (Neuraminidase [1]) [µM] | IC50 (Neuraminidase [2]) [µM] | Ki (Neuraminidase [3]) [µM]
1 | C=C(C)C(O)CC1=c2occ(-c3ccc(O)cc3)c(=O)c2=C(O)C2C=CC(C)(C)OC12 (configuration not stated) [ERYSENEGALENSEIN] | > 118 | > 118 | –
2 | CC(C)=CCc1c(O)cc2occ(-c3ccc(O)cc3)c(=O)c2c1O [WIGHTEONE] | > 148 | > 148 | –
3 | CC(C)=CCc1cc(/C=C/C(=O)c2ccc(O)cc2O)cc(O)c1O [5'-PRENYLBUTEIN] | 64.4 | 60.1 | 66.7
4 | CC(C)=CCc1cc(-c2coc3cc(O)cc(O)c3c2=O)ccc1O [CORYLIN] | > 148 | > 148 | –
5 | CC(C)=CCc1cc(/C=C/C(=O)c2ccc(O)cc2O)cc(CC=C(C)C)c1O [ABYSSINONE VI] | 67.4 | 62.6 | 70
6 | CC1(C)C=Cc2cc(-c3coc4cc(O)ccc4c3=O)ccc2O1 [ISOWIGHTEONE] | > 156 | > 156 | –
7 | COc1ccc(/C(C=O)=C\c2ccc(O)cc2OC)c(O)c1 [ERYTHRADDISON B] | 29.3 | 23.9 | 32.7
8 | CC1(C)C=Cc2c(c(CO)c3occ(-c4ccc(O)cc4)c(=O)c3c2O)O1 [ERYTHRADDISON A] | > 136 | > 136 | –
9 | CC(C)=CCc1cc(/C=C/C(=O)c2ccc(O)cc2O)ccc1O [LICOAGROCHALCONE A] | 66.3 | 61.7 | 68.9
